Measurements as given in a melting point compilation (Tetko et al.; mined from patent text by program, amines drawn as free bases though some values may be those of a salt).

Point of comparison: CCCCCCCc1ccc(C(=O)Oc2ccc(C(=O)O)c(Cl)c2)cc1, melting point 108 °C. Against it:
- CC(=O)OC1CSC(Oc2cccc(-c3cccs3)c2)C(OC(C)=O)C1OC(C)=O (centres undefined) — higher, 122 to 123 °C
- CCOC(=O)c1c(O)c2cnc(SC)nc2n(C)c1=O — higher, 166 to 168 °C
- CSC1=Nc2ccccc2C2=NCC(Cn3ccnc3)N12 (centres undefined) — lower, 97 to 99 °C
- COc1ccc(CN2CC(COC(c3ccccc3)(c3ccccc3)c3ccccc3)CC2=O)cc1 (centres undefined) — higher, 171 to 173 °C
- O=C(O)CCc1ccc(CCNC(=O)C2Cc3ccccc3N2S(=O)(=O)c2ccc(-c3cccc(C(F)(F)F)c3)cc2)cc1 (centres undefined) — lower, 86 °C
- O=C(Oc1ccc(Cl)c2c(=O)c3ccccc3sc12)c1ccccc1 — higher, 177 to 178 °C
- C=Cc1cccc2[nH]c(C(=O)O)cc(=O)c12 — higher, 265 to 266 °C
- N#Cc1ccc(OCCOc2ccc(C#N)cc2)cc1 — higher, 196 to 197 °C
- CSc1nc(Cl)cc(N(C)C)n1 — lower, 102 °C
- N#CCCN(N)c1nc2ccccc2s1 — higher, 111 to 113 °C
- NC(=O)c1c(Cl)c(-c2ccccc2)n2c1CN(S(=O)(=O)c1cccs1)CC2 — higher, 240 to 242 °C
- O=C(O)CCNS(=O)(=O)c1ccc(N2CCC(c3ccccc3)CC2)cc1 — higher, 145 to 147 °C
- O=C1NCC(Cn2cncn2)(c2ccc(Cl)cc2Cl)O1 (centres undefined) — higher, 223 °C
- CN1Cc2c(-c3nc(CCl)cs3)ncn2-c2ccc(F)cc2C1=O — higher, 239 to 241 °C
- COCCNC(=O)c1ccc(N2CCC(N3C(=O)OCc4ccccc43)CC2)c([N+](=O)[O-])c1 — higher, 192 to 193 °C
- CC(C)(C)OC(=O)NCc1ccc(N2CC(C(=O)N3CCN(CCC(=O)OCc4ccccc4)CC3)OC2=O)cc1 (centres undefined) — higher, 128 to 130 °C
- CCN1C(=O)C(C)(C)C(=O)N(C)c2cc(CN(CCn3ccc4oc(C)cc4c3=O)Cc3cc(C)n(C)n3)ccc21 — higher, 138 to 139 °C
- CCOC(=O)CNc1ccccc1C(N)=O — higher, 147 to 148 °C
- CN(Cc1ccccc1)Cc1c(-c2ccc([N+](=O)[O-])cc2)sc2c1c(=O)c(C(=O)c1ccccc1)cn2Cc1c(F)cccc1F — higher, 197 to 199 °C
- CC(C)C[C@H](NC(=O)Nc1n[nH]c(=S)s1)C(=O)NCc1ccccc1 — higher, 206 to 208 °C
- COC(=O)c1ccc(CC(C)NCC(O)c2ccccc2)cc1 (centres undefined) — lower, 82 to 84 °C
- COc1ccc(C2CC(O)CCC2[N+](=O)[O-])cc1OC (centres undefined) — higher, 126 to 127 °C
- COc1ccc(Cc2sccc2OC2OC(CO)C(O)C(O)C2O)cc1 (centres undefined) — higher, 154 to 155 °C
- C#Cc1ccc(SC)cc1Cl — lower, 46 to 50 °C
- CCCCN1C(=O)CC(=O)N(c2ccccc2)c2cc(Cl)ccc21 — higher, 159 to 161 °C
- CN1CCc2cc(Cl)c(NC=O)cc2[C@@H](c2ccccc2)C1 — higher, 135 to 136 °C
- CCOC(=O)c1ccc(Nc2nc(=O)c3cccnc3s2)cc1 — higher, 230 to 233 °C
- O=C(O)C1C(C=C(Cl)Cl)C12CCC2 (centres undefined) — higher, 122 to 128 °C
- Cc1cccc2c1C(=O)N1CCC[C@H]1c1c(C(=O)OC(C)(C)C)ncn1-2 — higher, 192 to 194 °C
- CCSc1c(N)cnc2cc(Cl)ccc12 — lower, 105 to 106 °C
- CCCNC(=S)Nc1sccc1C(=O)OC — higher, 123 to 126 °C
- Cc1nc(-c2cccc3c2C2(COc4cc5c(cc42)OCCO5)C(=O)N3C)cs1 (centres undefined) — higher, 219 to 220 °C
- CCOC(=O)c1cccc([N+](=O)[O-])c1NC(=O)OC(C)(C)C — lower, 104 to 105 °C
- CCN1CCN(c2cc3c(cc2F)c(=O)c(C(=O)O)c2n3C(C)S2)CC1 (centres undefined) — higher, 211 to 214 °C
- Cc1ccc2c(c1)SC(C(F)(F)F)C(C(=O)O)=C2 (centres undefined) — higher, 187 to 192 °C
- CCC12CCC3C4CCC(=O)C=C4CCC3C1CCC2OC(=O)CCc1ccccc1 (centres undefined) — higher, 135 to 140 °C
- CCCCCCCCCCCCCCCCCCOc1cc(OCCOc2ccc3ccccc3c2)cc(C(=O)OCc2ccccc2)c1 — lower, 62 to 65 °C
- CC(C)OC(=O)N1CCC(c2nc3cc(-c4ccc(S(C)(=O)=O)cc4F)ccc3o2)CC1 — lower, 96.5 to 101 °C
